Blank lines part the entries; values can stand above or below the molecule they belong to.
Tests used:
[1] = molecular target: T1, Vascular endothelial growth factor receptor 2 (Homo sapiens, UniProt P35968)
[2] = molecular target: T1, Vascular endothelial growth factor receptor 2; assay: Inhibition of VEGF-induced human KDR phosphorylation transfected in NIH3T3 cells by ELISA; format: functional, cell-based
[3] = molecular target: Angiopoietin-1 receptor (Homo sapiens, UniProt Q02763); assay: Inhibition of Tie2 by HTRF assay
[4] = molecular target: Mast/stem cell growth factor receptor Kit (Homo sapiens, UniProt P10721); assay: Inhibition of cKit by HTRF assay
[5] = molecular target: Fibroblast growth factor receptor (Homo sapiens, UniProt P22607+P11362+P22455+P21802); assay: Inhibition of FGFR by HTRF assay; format: protein assay
[6] = molecular target: Vascular endothelial growth factor receptor 3 (Homo sapiens, UniProt P35916); assay: Inhibition of FLT4 by HTRF assay
[7] = molecular target: Vascular endothelial growth factor receptor 1 (Homo sapiens, UniProt P17948); assay: Inhibition of FLT1 by HTRF assay
[8] = test system: Mus musculus; assay: Activity against estradiol-induced uterine edema in orally dosed murine; format: functional; conditions: po
[9] = molecular target: Tyrosine-protein kinase Lck (Homo sapiens, UniProt P06239); assay: Inhibition of Lck by HTRF assay
[10] = molecular target: Hepatocyte growth factor receptor (Homo sapiens, UniProt P08581); assay: Inhibition of cMet by HTRF assay
[11] = molecular target: Platelet-derived growth factor receptor (Homo sapiens, UniProt P09619+P16234); assay: Inhibition of PDGFR by HTRF assay; format: protein-complex assay

SMILES: O=CN1CCN(Cc2ccc3c(c2)-c2n[nH]c(-c4ccsc4)c2C3)CC1
IC50 [1]: 0.665 µM

SMILES: Cc1ccsc1-c1[nH]nc2c1Cc1cc(CN3CCN(C)CC3)ccc1-2
IC50 [1]: > 50 µM

SMILES: CN1CCN(Cc2ccc3c(c2)Cc2c-3n[nH]c2-c2cc3ccccc3s2)CC1
IC50 [1]: > 50 µM

SMILES: CCN(CC)Cc1ccc2c(c1)-c1n[nH]c(-c3ccsc3)c1C2
IC50 [1]: 0.824 µM

SMILES: CN1CCN(C(=O)c2ccc3c(c2)-c2[nH]nc(-c4ccsc4)c2C3)CC1
IC50 [1]: 4.08 µM

SMILES: CN1CCN(c2ccc3c(c2)Cc2c(-c4cccs4)n[nH]c2-3)CC1
IC50 [1]: 1000 µM

The next molecules have a lower IC50 [1] than those just listed; values first:

IC50 [1]: 0.19 µM
SMILES: CC(C)N1CCN(Cc2ccc3c(c2)-c2n[nH]c(-c4ccsc4)c2C3)CC1

IC50 [2]: 293 nM
IC50 [1]: 0.147 µM
IC50 [3]: 17.6 µM
IC50 [4]: 103 nM
IC50 [5]: 34.355 µM
IC50 [6]: 169 nM
IC50 [7]: 601 nM
IC50 [9]: 21.1 µM
IC50 [10]: > 50 µM
SMILES: c1cn(Cc2ccc3c(c2)-c2[nH]nc(-c4ccsc4)c2C3)cn1
ED50 [8]: 20 mg/kg

IC50 [1]: 0.108 µM
SMILES: c1ncn(Cc2ccc3c(c2)-c2n[nH]c(-c4ccsc4)c2C3)n1

IC50 [1]: 0.18 µM
IC50 [3]: 47.8 µM
IC50 [4]: 145 nM
IC50 [5]: > 50 µM
IC50 [6]: 1570 nM
IC50 [11]: > 50 µM
IC50 [7]: 970 nM
IC50 [9]: > 50 µM
IC50 [10]: > 50 µM
SMILES: CN1CCN(Cc2ccc3c(c2)-c2[nH]nc(-c4ccsc4)c2C3)CC1

IC50 [1]: 0.143 µM
SMILES: CN1CCN(CCc2ccc3c(c2)-c2n[nH]c(-c4ccsc4)c2C3)CC1

IC50 [1]: 0.19 µM
SMILES: c1cn(Cc2ccc3c(c2)-c2[nH]nc(-c4ccsc4)c2C3)nn1
